pIC50, pKd: −log10 of the molar value.
Columns and labels:
[1] = biological target: S. aureus SrtA (WT-SrtA) (Staphylococcus aureus, UniProt Q2FV99); assay: biochemical
[2] = tested on: S. aureus; assay: microbe, parasite or virus in culture; format: cell-based; conditions: Staphylococcus aureus, read-out: minimum inhibitory concentration (MIC)
[3] = tested on: S. aureus USA 300; format: cell-based, Staphylococcus aureus
[4] = tested on: hla gene; format: cell-based, Staphylococcus aureus
[5] = tested on: agrA gene; format: cell-based, Staphylococcus aureus
[6] = tested on: SpA display in S. aureus; format: cell-based, Staphylococcus aureus
[7] = tested on: adhesion of S. aureus to Fn; format: cell-based, Staphylococcus aureus
[8] = tested on: S. aureus biofilm formation; format: cell-based, Staphylococcus aureus
[9] = tested on: S. aureus invasion of J774 cells; format: cell-based, Staphylococcus aureus
[10] = biological target: WT-SrtA (Staphylococcus aureus, UniProt Q2FV99); assay: biochemical; format: binding
WT-SrtA, sequence (Q2FV99 60-206): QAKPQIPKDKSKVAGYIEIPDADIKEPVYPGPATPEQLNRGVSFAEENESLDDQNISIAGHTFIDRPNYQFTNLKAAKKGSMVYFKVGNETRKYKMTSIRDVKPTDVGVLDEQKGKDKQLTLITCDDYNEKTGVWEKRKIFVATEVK

[11] = tested on: A549 cells; format: cell-based
[12] = tested on: S. aureus; set-up: species or system C57BL/6J mice; conditions: mouse, in vivo
[13] = tested on: A549 cells

S. aureus SrtA (WT-SrtA), sequence (Q2FV99 60-206): as above

O=C(/C=C/c1ccccc1)c1ccccc1 [chalcone]
pIC50 [1]: 4.27
MIC [2]: > 4.86 mM
growth of S. aureus USA 300 [3]: not visibly affected
transcription level of the hla gene [4]: down-regulated
transcription level of the agrA gene [5]: down-regulated
SpA display [6]: significant reductions
adhesion rate to Fn [7]: no inhibition was observed
biofilm formation, untreated vs. treated [8]: quite significant
quantity of bacteria entering J774 cells [9]: significantly decreased
pKd [10]: 4.79
Hla-induced A549 cell injury (Live/Dead) [11]: obvious reduction in cell injury
release of LDH into the supernatants [11]: significantly decrease
survival rate vs. group without treatment [12]: significantly higher
cytotoxic effect in A549 cells [13]: almost no cytotoxic effect
